Laboratory results published in ChEMBL document CHEMBL1201862, “PubChem BioAssay data set” (2004).
Calls of active or inactive are those of the source.

Key:
[1] = control 3'UTR Renilla luciferase suppression, dose response, counter-screen for Shn3 inhibitor project, cell-based, Clone20-Shn3RL, cherry-picked (AID 624133); format: functional
[2] = HepG2 cell cytotoxicity, dose response, cytotoxicity control for Shn3 inhibitor project, CellTiter-Glo, cherry-picked (AID 624134); format: functional, cell-based
[3] = Shn3 3'UTR reporter inhibitors, dose response, cell-based, Clone20 osteoblasts, firefly luciferase, cherry-picked (AID 624132); format: functional;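 further: firefly luciferase luminescence from reporter carrying the Shn3 3'UTR in osteoblasts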
[4] = target: Cytochrome P450 3A4 (Homo sapiens, UniProt P08684);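 further: CYP3A4 tested as one member of a cytochrome P450 panel screen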
Cytochrome P450 3A4, sequence (P08684 whole entry): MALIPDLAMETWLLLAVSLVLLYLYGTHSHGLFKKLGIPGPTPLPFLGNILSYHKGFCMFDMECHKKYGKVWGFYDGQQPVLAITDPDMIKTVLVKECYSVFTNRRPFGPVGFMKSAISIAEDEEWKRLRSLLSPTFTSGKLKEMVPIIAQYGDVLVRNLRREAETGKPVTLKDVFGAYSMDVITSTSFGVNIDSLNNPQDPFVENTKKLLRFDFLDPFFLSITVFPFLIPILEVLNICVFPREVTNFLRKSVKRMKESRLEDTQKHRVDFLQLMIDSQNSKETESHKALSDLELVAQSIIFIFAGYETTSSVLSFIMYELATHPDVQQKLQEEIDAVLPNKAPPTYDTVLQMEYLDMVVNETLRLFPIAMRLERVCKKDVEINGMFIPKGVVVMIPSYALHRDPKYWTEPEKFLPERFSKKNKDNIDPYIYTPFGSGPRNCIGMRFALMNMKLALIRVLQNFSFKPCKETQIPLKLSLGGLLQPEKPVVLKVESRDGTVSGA

[5] = target: Cytochrome P450 2C19 (Homo sapiens, UniProt P33261); assay: Cytochrome panel assay with activity outcomes. Panel member name: p450-cyp2c19 Compounds with AC50 equal or less than 10 uM are considered active; format: functional
Cytochrome P450 2C19, sequence (P33261 whole entry): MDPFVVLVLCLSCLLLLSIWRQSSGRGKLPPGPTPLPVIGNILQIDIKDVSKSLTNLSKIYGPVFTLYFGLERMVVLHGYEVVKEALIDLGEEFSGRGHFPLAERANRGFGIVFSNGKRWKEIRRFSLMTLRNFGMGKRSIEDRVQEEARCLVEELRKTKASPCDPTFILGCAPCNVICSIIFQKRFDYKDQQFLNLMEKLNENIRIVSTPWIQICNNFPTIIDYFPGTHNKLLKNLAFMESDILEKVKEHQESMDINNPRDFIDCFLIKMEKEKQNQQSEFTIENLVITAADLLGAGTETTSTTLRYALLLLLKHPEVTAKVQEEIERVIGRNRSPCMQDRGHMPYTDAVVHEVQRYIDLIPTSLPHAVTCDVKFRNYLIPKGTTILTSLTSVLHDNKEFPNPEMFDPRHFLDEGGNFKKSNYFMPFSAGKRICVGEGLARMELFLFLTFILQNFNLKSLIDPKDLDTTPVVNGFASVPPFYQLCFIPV

[6] = target: Cytochrome P450 2D6 (Homo sapiens, UniProt P10635);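 further: CYP2D6 member of a cytochrome P450 panel assay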
Cytochrome P450 2D6, sequence (P10635 whole entry): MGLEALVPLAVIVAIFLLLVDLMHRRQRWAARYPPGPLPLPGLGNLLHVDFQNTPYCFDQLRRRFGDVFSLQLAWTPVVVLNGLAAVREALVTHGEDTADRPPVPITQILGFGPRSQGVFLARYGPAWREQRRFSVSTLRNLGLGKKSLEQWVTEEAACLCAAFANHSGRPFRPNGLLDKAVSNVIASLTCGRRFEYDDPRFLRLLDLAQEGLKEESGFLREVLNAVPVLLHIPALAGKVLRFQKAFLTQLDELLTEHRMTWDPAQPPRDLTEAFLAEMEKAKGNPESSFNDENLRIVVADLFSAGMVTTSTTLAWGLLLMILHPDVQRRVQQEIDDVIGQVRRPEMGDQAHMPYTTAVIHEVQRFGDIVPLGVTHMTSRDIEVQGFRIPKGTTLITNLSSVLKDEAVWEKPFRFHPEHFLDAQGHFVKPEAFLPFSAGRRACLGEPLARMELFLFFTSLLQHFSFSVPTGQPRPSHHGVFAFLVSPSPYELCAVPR

[7] = Luminescence Cell-Based Dose Retest to Confirm Inhibitors of Cancer Stem Cells. [Related pubchem assays (depositor defined):AID2717, AID2721]; format: functional; details: Homo sapiens
[8] = target: T1, Heat shock factor protein 1 (Mus musculus, UniProt P38532); assay: HSF1 potentiators in luciferase reporter cells, confirmation, cell-based, NIH3T3, luminescence, dose retest (AID 435004); format: functional;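 further: stress induced by proteasome inhibitor MG132 added 30 min after compound; luciferase reporter driven by HSF1 response element in NIH3T3 cells; actives raise luminescence as potentiators of the MG132 stress response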
T1 sequence (P38532 whole entry): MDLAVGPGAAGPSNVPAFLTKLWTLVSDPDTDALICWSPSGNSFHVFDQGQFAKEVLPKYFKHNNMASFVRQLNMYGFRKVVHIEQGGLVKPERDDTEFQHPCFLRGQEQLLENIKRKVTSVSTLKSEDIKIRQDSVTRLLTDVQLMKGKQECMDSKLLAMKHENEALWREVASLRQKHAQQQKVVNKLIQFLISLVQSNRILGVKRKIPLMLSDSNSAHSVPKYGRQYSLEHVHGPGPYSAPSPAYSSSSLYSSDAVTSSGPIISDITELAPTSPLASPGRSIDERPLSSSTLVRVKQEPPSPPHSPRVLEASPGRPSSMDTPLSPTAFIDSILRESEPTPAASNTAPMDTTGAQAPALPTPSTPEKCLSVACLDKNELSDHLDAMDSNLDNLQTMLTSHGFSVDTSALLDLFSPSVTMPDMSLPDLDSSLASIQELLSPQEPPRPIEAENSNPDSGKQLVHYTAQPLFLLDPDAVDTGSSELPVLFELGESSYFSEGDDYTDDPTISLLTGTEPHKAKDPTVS

[9] = inhibitors of SNCA 5'UTR-driven reporter translation, confirmation, H4 neuroglioma cells, luminescence (AID 1988); format: functional, cell-based
[10] = Luminescence Cell-Based Dose Response HTS to Identify Inhibitors of 5'UTR Stem-Loop Driven Prion Protein mRNA Translation in H4 Neuroglioblastoma Cells. [Related pubchem assays: 1827 (Project Summary), 1813 (Primary HTS)]; format: functional
[11] = target: T2, Replicative DNA helicase DnaB (Mycobacterium tuberculosis, UniProt P9WMR3); assay: DnaB intein splicing inhibitors, dose response, biochemical, cell-free fluorescence (AID 449749); format: functional
T2 sequence (P9WMR3 whole entry): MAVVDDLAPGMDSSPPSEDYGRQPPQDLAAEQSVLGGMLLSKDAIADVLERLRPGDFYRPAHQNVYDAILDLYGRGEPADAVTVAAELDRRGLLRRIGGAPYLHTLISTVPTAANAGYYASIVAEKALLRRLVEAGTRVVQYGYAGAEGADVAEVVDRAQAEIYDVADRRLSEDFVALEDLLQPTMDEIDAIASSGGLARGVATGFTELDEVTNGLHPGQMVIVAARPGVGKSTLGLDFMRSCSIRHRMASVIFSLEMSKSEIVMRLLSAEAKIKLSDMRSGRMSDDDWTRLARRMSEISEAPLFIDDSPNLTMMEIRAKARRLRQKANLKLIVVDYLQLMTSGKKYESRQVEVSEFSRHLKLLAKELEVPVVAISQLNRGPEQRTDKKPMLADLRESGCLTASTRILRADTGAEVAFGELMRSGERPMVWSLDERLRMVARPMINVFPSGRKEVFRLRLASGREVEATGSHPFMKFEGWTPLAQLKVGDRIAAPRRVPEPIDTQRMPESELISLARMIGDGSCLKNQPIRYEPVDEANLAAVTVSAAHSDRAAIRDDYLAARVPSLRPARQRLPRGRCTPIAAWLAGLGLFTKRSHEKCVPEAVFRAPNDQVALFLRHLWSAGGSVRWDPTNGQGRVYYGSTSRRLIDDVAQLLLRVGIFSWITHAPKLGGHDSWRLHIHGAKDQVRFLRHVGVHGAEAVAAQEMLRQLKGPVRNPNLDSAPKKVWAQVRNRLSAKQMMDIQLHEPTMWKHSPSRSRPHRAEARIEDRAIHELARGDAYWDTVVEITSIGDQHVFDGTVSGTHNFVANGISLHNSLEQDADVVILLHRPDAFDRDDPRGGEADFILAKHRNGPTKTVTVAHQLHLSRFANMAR

[12] = target: T3, Protein RecA (Mycobacterium tuberculosis, UniProt P9WHJ3); assay: Fluorescence Cell-Free Homogeneous Dose Retest to Identify Inhibitors of RecA-Intein Splicing Activity. [Related pubchem assays (depositor defined):AID2097, AID2223, AID489010, AID492950]; format: functional
T3 sequence (P9WHJ3 whole entry): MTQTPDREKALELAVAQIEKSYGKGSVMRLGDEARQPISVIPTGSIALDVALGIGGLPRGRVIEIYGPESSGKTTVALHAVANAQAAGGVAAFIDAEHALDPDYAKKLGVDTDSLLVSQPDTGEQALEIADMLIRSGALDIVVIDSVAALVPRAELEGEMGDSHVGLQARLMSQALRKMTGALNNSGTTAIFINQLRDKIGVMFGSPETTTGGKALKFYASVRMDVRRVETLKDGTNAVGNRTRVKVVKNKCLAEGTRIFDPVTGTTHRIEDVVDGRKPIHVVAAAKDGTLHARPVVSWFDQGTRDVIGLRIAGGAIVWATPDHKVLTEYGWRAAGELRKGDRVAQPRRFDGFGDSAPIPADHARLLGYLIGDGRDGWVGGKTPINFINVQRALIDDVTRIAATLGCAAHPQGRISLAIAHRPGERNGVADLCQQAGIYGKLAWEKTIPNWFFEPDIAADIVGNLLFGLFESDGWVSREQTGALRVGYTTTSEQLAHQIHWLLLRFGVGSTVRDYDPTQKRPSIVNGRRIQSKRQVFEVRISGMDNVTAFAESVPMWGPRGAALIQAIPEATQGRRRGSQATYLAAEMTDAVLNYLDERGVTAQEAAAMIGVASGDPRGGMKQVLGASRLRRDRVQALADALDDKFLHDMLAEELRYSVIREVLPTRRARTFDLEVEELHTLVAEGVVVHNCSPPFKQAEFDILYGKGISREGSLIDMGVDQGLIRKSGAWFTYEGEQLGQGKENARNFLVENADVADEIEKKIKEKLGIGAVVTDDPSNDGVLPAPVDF

[13] = inhibitors of intracellular T. cruzi replication, confirmation, NIH3T3 host cells, beta-gal luminescence (AID 2044); format: functional, cell-based;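 further: intracellular parasites grown in NIH/3T3 mouse fibroblasts as host cells; luminescent beta-galactosidase reporter signal from transgenic T. cruzi replicating inside host cells; inhibitors lower the luminescence signal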
[14] = cytotoxicity toward NIH3T3 fibroblasts, dose response, counter-screen, cell-based, ATP luminescence, mouse fibroblasts (AID 2010); format: functional;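 further: cells exposed to compound for about 90 hours before reading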

NC(=O)CC(NC(=O)c1ccc(Br)cc1)c1ccc(N2CCC(Br)CC2)c([N+](=O)[O-])c1 (configuration not stated)
AC50 [1]: 17.5 µM (active) | AC50 [2]: 62.8 µM (active) | AC50 [3]: 4.19 µM (active)

Cc1ccc(CS(=O)(=O)CCC(=O)NCCN2CCCC2)cc1
AC50 [4]: 25.1 µM (inconclusive) | AC50 ([5]; read-out: AC50): 39.8 µM (inconclusive) | AC50 [6]: 0.1 µM (inconclusive)

O=C(/C=C/c1ccc2c(c1)OCO2)NCCSCc1ccc(Cl)cc1
AC50 [7]: 0.922 µM (active)

Cc1cccc(CNc2cc(-c3ccccc3CN(C)C)ncn2)c1
AC50 [5]: inconclusive | AC50 [6]: 20 µM (inconclusive)

COc1ccccc1NC(=O)Nc1nc(CC(=O)N2CCN(c3ccccc3)CC2)cs1
EC50 [8]: > 260 µM (inactive)

Nc1ncnc(N)c1N=Nc1ccccc1
EC50 [9]: 11.2 µM (active) | EC50 [10]: 15.7 µM (active)

CN1C(=O)c2cccc(NCCCCCCN3C(=O)c4ccccc4C3=O)c2C1=O
AC50 [1]: 17.2 µM (active) | AC50 [3]: 5.57 µM (active)

COc1ccc(-c2sc3cc4c(cc3c2C#CC2(O)CCCCC2)OCO4)cc1
AC50 [7]: 4.07 µM (active)

Cc1nn(-c2ccccc2)c2c1C(c1ccncc1)C(C#N)=C(N)O2 (configuration not stated)
AC50 [11]: 12.7 µM (active) | EC50 [12]: 3.05 µM (active)

FC(F)(F)c1ccccc1-c1nccc(NCCN2CCOCC2)n1
AC50 ([5]; read-out: AC50): 6.31 µM (inconclusive) | AC50 [6]: 12.6 µM (inconclusive)

Cc1ccc(NS(=O)(=O)c2sc3ccc(Cl)cc3c2C)cc1
AC50 [7]: 3.78 µM (active)

Cc1onc(-c2ccccc2)c1NC(=O)N(CCC#N)Cc1ccccc1
EC50 [8]: > 260 µM (inactive)

N=C(N)SCc1cn(-c2ccccc2)nc1-c1ccc(Br)cc1
EC50 [13]: 1.03 µM (active) | EC50 [14]: 11.2 µM (active) | AC50 [11]: 8.68 µM (active) | EC50 [12]: 11 µM (active)

O=C(CN1CCOCC1)N(c1ccccc1)c1ccc2ccccc2c1
EC50 [8]: > 260 µM (inactive)

Cc1ccn(CC(=O)N2CCCC(N3CCN(c4ccc(F)cc4)CC3)C2)n1 (configuration not stated)
EC50 [8]: > 260 µM (inactive)
